Source: patent US20230060873A1, “COMPOUNDS AND METHODS FOR FORMING ION CHANNELS IN BIOLOGICAL MEMBRANES” (Washington University, priority 2021, published 2023)

Columns and labels:
Bacillus subtilis = assay: Toxicity (MIC) of MAcBCE and MAkBCE compounds on B. subtilis; type: cell-based; conditions: B. subtilis 168 WT with pRB374, 12 h, up to 400 μM
Protocol: XL1 blue strain Escherichia coli cells transformed with pET28a plasmid containing a kanamycin resistance gene, were grown at 37° C. in 2 mL of LB medium (Miller's LB broth, Research Products International) supplemented with 50 μg/mL of kanamycin, until the optical density (OD600) reached 0.6. The starting density of bacteria in the remainder of the experiments was a 1/100 dilution of this bacterial density, which was split into 4 mL cultures. A series of 400, 100, 10 and 5 mM stock solutions of each monoacylated benzo(crown-ether) (MAcBCE) and monoalkylated benzo(crown-ether) (MAkBCE) compounds in trifluoroethanol (TFE) were diluted by addition to the 4 mL cultures to reach final concentrations of 400, 200, 100, 50, 20, 15, 10, 5, 4, 3, 2 and 1 μM. The final TFE concentration was never higher than 0.1% v/v. Negative controls in the presence of TFE 0.1% v/v or in the absence of any treatment for each batch gave similar bacterial growth. The cultures were incubated at 37° C. with agitation for 12 h. Bacillus subtilis (168 WT) toxicity tests were carried out using an identical protocol, except they were transformed with the shuttle plasmid pRB374 in the presence of 5 μg/mL of kanamycin. […] Each compound was assayed a minimum of three times at each tested concentration.
The cytotoxicity of MABCE compounds was determined by measuring the MIC in liquid cultures of either the gram-negative bacteria Escherichia coli or the gram-positive bacteria Bacillus subtilis. […] As some curves overlap, portions of them are hidden. Values of MIC of 400 μM indicate that the value was either 400 μM, or it was higher and then was not determined. Each compound was assayed a minimum of three times at each different concentration. MICs for 5-A-4, 5-A-11, 6-A-11 and 6-O-11 could not be determined because the compounds were not soluble in TFE. While E. coli was not susceptible to any of the tested compounds at concentrations as high as 400 μM (data not shown), B. subtilis was susceptible to MABCE compounds bearing 15-crown-5 and 18-crown-6 scaffolds, but not to compounds containing a 12-crown-4 scaffold, as shown in FIG. 1.

B. subtilis membranes = assay: DiSC3(5) depolarization assay, MAcBCE/MAkBCE; type: cell-based, Bacillus subtilis; conditions: 2 μM compound, 60 mM KCl, NaCl or NMDG-Cl; for change in DiSC3(5) fluorescence (membrane depolarization): 25° C, 10 minutes
Protocol: A 2 mL liquid culture of transformed B. subtilis cells was grown at 37° C. in LB medium supplemented with 5 μg/mL kanamycin until OD600=0.6 was reached. The cells were collected by centrifugation at 2000 rpm over 3 min. The bacteria were washed twice with an NMDG-MeSO3 solution (100 mM NMDG, 10 mM HEPES, pH adjusted to 7.4 with methane sulfonic acid). […] The working dye solution was a 200 μM solution of DiSC3(5) (3,3′-dipropylthiadicarbocyanine iodide; Tokyo Chemical Industry) in DMSO. A series of 2 M solutions of NMDG-Cl, NaCl and KCl were prepared containing 10 mM HEPES; the pH was adjusted to pH 7.4 with NMDG, NaOH or KOH, respectively, to avoid any pH changes after their addition. The experiment was initiated with 3 mL of NMDG-MeSO3 in a quartz cuvette, then 5 μL of the dye solution was added (timepoint t1, 50 sec) for a 0.3 μM final concentration by the end of experiment. This was followed by the addition of 100 μL of the B. subtilis suspension (timepoint t2, 100 sec). After 150 sec (timepoint t3, 250 sec), the fluorescence stabilized to a minimum intensity and 100 μL of the 2 M NMDG-Cl, NaCl or KCl solution was added to reach ˜60 mM final concentration of the salt. The final step was the addition 0.64 μL of a 10 mM stock solution of the desired MAcBCE or MAkBCE compound in TFE (timepoint t4, 400 sec), for a final concentration of 2 μM. Negative controls were performed by adding the same volume of pure TFE to the cuvette at timepoint t4. Fluorescence intensity was recorded each second using a Horiba Fluoromax 4 spectrometer (λexcitation=640 nm; λemission=670 nm). The solution inside the cuvette was vigorously mixed throughout the experiment by using a magnetic stirrer and the temperature was kept constant at 25° C. For purposes of normalization, the fluorescence intensity was divided by the fluorescence level just before timepoint t2.
To determine whether MAcBCE or MAkBCE compounds catalyse ion-selective flux, a set of highly bioactive members bearing ten-carbon chain lengths were tested for their ability to depolarize B. subtilis membranes using a test based on the fluorescent dye 3,3-dipropylthiadicarbocyanine (DiSC3(5)). This set of compounds were selected as four of the most toxic members of the MAcBCE and MAkBCE compound library (5-O-10, 5-A-10, 6-O-10, and 6-A-10; FIG. 3) belong to this group and all are soluble in TFE. The two non-toxic benzo(12-crown-4) scaffold members (4-O-10 and 4-A-10; FIG. 3) were used as controls.
FIGS. 4 and 5 show the time course of DiSC3(5) fluorescence due to the addition of 2 μM 6-A-10 (FIG. 4) and 6-O-10 (FIG. 5). The average of the final fluorescence values (mean±S.E.M.) of at least three experiments are shown in FIGS. 4 and 5 and are similarly plotted for 4-A-10 (FIG. 6), 5-A-10 (FIG. 7), 6-A-10 (FIG. 8), 4-O-10 (FIG. 9), 5-O-10 (FIG. 10), and 6-O-10 (FIG. 11). Experiments were performed in a NMDG-MeSO3 solution (100 mM NMDG, 10 mM HEPES, pH adjusted to 7.4 with methane sulfonic acid). The events are: t1, addition of dye; t2, addition of B. subtilis; t3, addition of a 2 M NMDG-Cl, 2 M NaCl or a 2 M KCl solution up to a final concentration of 60 mM; t4, addition of each MAcBCE or MAkBCE compound up to 2 μM. Experiments were repeated at least four times per condition and normalized relative to the fluorescence intensity just before the addition of cells.
The potentiometric dye DiSC3(5) was used to measure the ability of MAcBCE and MAkBCE compounds to catalyse ion-selective transport. DiSC3(5) undergoes membrane voltage-dependent partitioning between the intracellular and the extracellular medium. DiSC3(5) accumulates within a cell with a polarized membrane (negatively charged inside the cell) and is released when the cell membrane is depolarized (positively charged inside the cell). The membrane voltage in B. subtilis is roughly −120 mV, leading to DiSC3(5) accumulation in the bacteria (timepoint t2 in FIG. 4A-B). […]

| Structure (SMILES) | toxicity / susceptibility of B. subtilis (MIC, FIG. 1) (Bacillus subtilis) | change in DiSC3(5) fluorescence (membrane depolarization) (B. subtilis membranes) | kinetics of the depolarization, ion dependence (B. subtilis membranes) |
| --- | --- | --- | --- |
| CCCCCCCCCCc1ccc2c(c1)OCCOCCOCCOCCOCCO2 [Compound 6-A-10, 18-decyl-2,3,5,6,8,9,11,12,14,15-decahydrobenzo[b][1,4,7,10,13,16]hexaoxacyclooctadecine] | most toxic | clear increase in fluorescence | – |
| CCCCCCCCCC(=O)c1ccc2c(c1)OCCOCCOCCOCCOCCO2 [Compound 6-O-10, 1-(2,3,5,6,8,9,11,12,14,15-decahydrobenzo[b][1,4,7,10,13,16]hexaoxacyclooctadecin-18-yl)decan-1-one] | most toxic | clear increase in fluorescence | fastest in presence of K^+ followed by Na^+ and then NMDG^+ |
